According to patent publication US12116343B2, “Inhibitors of APOL1 and methods of using same” (Vertex Pharmaceuticals Incorporated, priority 2020, dated 2024):

Each compound was assayed against T1, G1 APOL1 (Homo sapiens, UniProt O14791, I384M/S342G) (assay: Acute APOL1 Thallium Assay with inducible stable clones of HEK 293 cells). Details: HEK 293 T-Rex cells expressing G1 APOL1; read-out: Thallium Assay (IC50).
T1 construct: expressed in transfected cells
T1 sequence (O14791 28-398 S342G/I384M): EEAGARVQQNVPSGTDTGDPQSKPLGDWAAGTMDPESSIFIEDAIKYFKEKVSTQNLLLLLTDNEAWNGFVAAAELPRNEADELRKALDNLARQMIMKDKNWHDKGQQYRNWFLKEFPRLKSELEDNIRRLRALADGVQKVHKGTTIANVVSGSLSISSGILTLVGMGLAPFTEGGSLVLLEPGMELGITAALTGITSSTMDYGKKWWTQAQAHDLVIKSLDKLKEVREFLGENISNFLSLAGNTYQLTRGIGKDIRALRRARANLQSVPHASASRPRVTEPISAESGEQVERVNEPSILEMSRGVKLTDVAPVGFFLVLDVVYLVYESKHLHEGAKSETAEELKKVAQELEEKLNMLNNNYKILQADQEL
Assay type: cell-based
Outline: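 Tetracycline-inducible HEK293 T-Rex clone G1 DC3.25 expressing G1 APOL1, plated at 26000 cells/well in Opti-MEM with tetracycline induction. APOL1 pore activity read on FLIPR as fluorescence increase from Tl+ influx into cells loaded with a Tl+-sensitive AM-ester dye.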

IC50 [µM]	Compound
0.25 to 1	O=C(N[C@H]1COC[C@@H]1O)[C@H]1C[C@H](c2c(-c3ccc(F)cc3)[nH]c3c(F)cc(F)cc32)C1 [Compound 184]
0.25 to 1	C[C@]1(NC(=O)[C@H]2C[C@H](c3c(-c4ccc(F)cc4)[nH]c4c(F)cc(F)cc43)C2)C[C@@H](O)C1 [Compound 211]
0.25 to 1	O=C(NC1(CO)CC(F)(F)C1)[C@H]1C[C@H](c2c(-c3ccc(F)cc3)[nH]c3c(F)cc(F)cc32)C1 [Compound 202]
> 1	O=C(NC[C@H]1CC[C@@H](CO)O1)[C@H]1C[C@H](c2c(-c3ccc(F)cc3)[nH]c3c(F)cc(F)cc32)C1 [Compound 189]
> 1	O=C(N[C@H]1CC[C@@H]1O)[C@H]1C[C@H](c2c(-c3ccc(F)cc3)[nH]c3c(F)cc(F)cc32)C1 [Compound 178]
0.25 to 1	O=C1CCC(NC(=O)[C@H]2C[C@H](c3c(-c4ccc(F)cc4)[nH]c4c(F)cc(F)cc43)C2)C(=O)N1 (stereo partly shown) [Compound 26]
> 1	O=C([C@H]1C[C@H](c2c(-c3ccc(F)cc3)[nH]c3c(F)cc(F)cc32)C1)N1C[C@@H](O)[C@H](O)C1 [Compound 227]
0.25 to 1	C[C@@H](NC(=O)[C@H]1C[C@H](c2c(-c3ccc(F)cc3)[nH]c3c(F)cc(F)cc32)C1)C(N)=O [Compound 28]
< 0.25	CC(C)(CO)NC(=O)[C@H]1C[C@H](c2c(-c3ccc(F)cc3)[nH]c3c(F)cc(F)cc32)C1 [Compound 31]
0.25 to 1	O=C([C@H]1C[C@H](c2c(-c3ccc(F)cc3)[nH]c3c(F)cc(F)cc32)C1)N1CC[C@H]1CO [Compound 206]
> 1	COCCNC(=O)[C@H]1C[C@H](c2c(-c3ccc(F)cc3)[nH]c3c(F)cc(F)cc32)C1 [Compound 12]
> 1	O=C1NCCC1CNC(=O)[C@H]1C[C@H](c2c(-c3ccc(F)cc3)[nH]c3c(F)cc(F)cc32)C1 (stereo partly shown) [Compound 208]
0.25 to 1	C#CC(CO)NC(=O)[C@H]1C[C@H](c2c(-c3ccc(F)cc3)[nH]c3c(F)cc(F)cc32)C1 (stereo partly shown) [Compound 196]
< 0.25	C[C@@H](CO)NC(=O)[C@H]1C[C@H](c2c(-c3ccc(F)cc3)[nH]c3c(F)cc(F)cc32)C1 [Compound 200]
0.25 to 1	O=C(NCC(F)(F)F)[C@H]1C[C@H](c2c(-c3ccc(F)cc3)[nH]c3c(F)cc(F)cc32)C1 [Compound 33]
> 1	COC1CC1NC(=O)[C@H]1C[C@H](c2c(-c3ccc(F)cc3)[nH]c3c(F)cc(F)cc32)C1 (stereo partly shown) [Compound 18]
> 1	O=C(N[C@H]1C[C@H](O)C1)[C@H]1C[C@H](c2c(-c3ccc(F)cc3)[nH]c3c(F)cc(F)cc32)C1 [Compound 20]

IC50 [µM]	Compound
0.25 to 1	O=C1NCCCC1NC(=O)[C@H]1C[C@H](c2c(-c3ccc(F)cc3)[nH]c3c(F)cc(F)cc32)C1 (stereo partly shown) [Compound 23]
> 1	O=C(NC[C@H](O)CO)[C@H]1C[C@H](c2c(-c3ccc(F)cc3)[nH]c3c(F)cc(F)cc32)C1 [Compound 225]
0.25 to 1	NC(=O)C1CC(c2c(-c3ccc(F)cc3)[nH]c3c(F)cc(F)cc23)C1 (stereo not shown) [Compound 278, 3-[5,7-difluoro-2-(4-fluorophenyl)-1H-indol-3-yl]cyclobutanecarboxamide]
0.25 to 1	O=C(NCC1(O)CC1)[C@H]1C[C@H](c2c(-c3ccc(F)cc3)[nH]c3c(F)cc(F)cc32)C1 [Compound 183]
0.25 to 1	C[C@@H](O)CNC(=O)[C@H]1C[C@H](c2c(-c3ccc(F)cc3)[nH]c3c(F)cc(F)cc32)C1 [Compound 175]
> 1	O=C(NC1CCOC1)[C@H]1C[C@H](c2c(-c3ccc(F)cc3)[nH]c3c(F)cc(F)cc32)C1 (stereo partly shown) [Compound 15]
0.25 to 1	O=C1OCC[C@@H]1NC(=O)[C@H]1C[C@H](c2c(-c3ccc(F)cc3)[nH]c3c(F)cc(F)cc32)C1 [Compound 188]
< 0.25	O=C([C@H]1C[C@H](c2c(-c3ccc(F)cc3)[nH]c3c(F)cc(F)cc32)C1)N1CC[C@@H]1CO [Compound 195]
0.25 to 1	O=C(NCC(O)CO)[C@H]1C[C@H](c2c(-c3ccc(F)cc3)[nH]c3c(F)cc(F)cc32)C1 (stereo partly shown) [Compound 14]
> 1	O=C([C@H]1C[C@H](c2c(-c3ccc(F)cc3)[nH]c3c(F)cc(F)cc32)C1)N1CCC[C@@H]1CO [Compound 192]
> 1	CS(=O)(=O)NC(=O)[C@H]1C[C@H](c2c(-c3ccc(F)cc3)[nH]c3c(F)cc(F)cc32)C1 [Compound 213]
> 1	O=C(N[C@H]1CNC[C@@H]1O)[C@H]1C[C@H](c2c(-c3ccc(F)cc3)[nH]c3c(F)cc(F)cc32)C1 [Compound 212]
> 1	O=C1N[C@H](CO)C[C@@H]1NC(=O)[C@H]1C[C@H](c2c(-c3ccc(F)cc3)[nH]c3c(F)cc(F)cc32)C1 [Compound 209]
0.25 to 1	O=C(NCC1(O)COC1)[C@H]1C[C@H](c2c(-c3ccc(F)cc3)[nH]c3c(F)cc(F)cc32)C1 [Compound 185]
< 0.25	CC(CO)NC(=O)[C@H]1C[C@H](c2c(-c3ccc(F)cc3)[nH]c3c(F)cc(F)cc32)C1 (mixture of isomers) [Compound 13]
> 1	O=C([C@H]1C[C@H](c2c(-c3ccc(F)cc3)[nH]c3c(F)cc(F)cc32)C1)N1CC(CO)C1 [Compound 223]

More lines, now with the values behind:

Compound	IC50 [µM]
O=C(NC[C@H](O)C(F)(F)F)[C@H]1C[C@H](c2c(-c3ccc(F)cc3)[nH]c3c(F)cc(F)cc32)C1 [Compound 176]	0.25 to 1
CC(C#N)(CO)NC(=O)[C@H]1C[C@H](c2c(-c3ccc(F)cc3)[nH]c3c(F)cc(F)cc32)C1 (stereo partly shown) [Compound 191]	0.25 to 1
Cn1ccc(NC(=O)[C@H]2C[C@H](c3c(-c4ccc(F)cc4)[nH]c4c(F)cc(F)cc43)C2)n1 [Compound 22]	> 1
Cn1cc(CNC(=O)[C@H]2C[C@H](c3c(-c4ccc(F)cc4)[nH]c4c(F)cc(F)cc43)C2)cn1 [Compound 38]	> 1
Cn1ncc(CNC(=O)[C@H]2C[C@H](c3c(-c4ccc(F)cc4)[nH]c4c(F)cc(F)cc43)C2)n1 [Compound 198]	0.25 to 1
COC[C@@H]1CCN1C(=O)[C@H]1C[C@H](c2c(-c3ccc(F)cc3)[nH]c3c(F)cc(F)cc32)C1 [Compound 222]	0.25 to 1
O=C([C@H]1C[C@H](c2c(-c3ccc(F)cc3)[nH]c3c(F)cc(F)cc32)C1)N1CCOC[C@H]1CO [Compound 217]	> 1
COC[C@@H]1CCN1C(=O)[C@H]1C[C@H](c2c(-c3ccc(F)cc3)[nH]c3c(F)cc(F)cc32)C1 [Compound 220]	> 1
CC1(CO)CCN1C(=O)[C@H]1C[C@H](c2c(-c3ccc(F)cc3)[nH]c3c(F)cc(F)cc32)C1 (mixture of isomers) [Compound 218]	0.25 to 1
O=C(NCc1nnco1)[C@H]1C[C@H](c2c(-c3ccc(F)cc3)[nH]c3c(F)cc(F)cc32)C1 [Compound 171]	0.25 to 1
O=C(NC1(CO)CCOC1)[C@H]1C[C@H](c2c(-c3ccc(F)cc3)[nH]c3c(F)cc(F)cc32)C1 (stereo partly shown) [Compound 194]	< 0.25
O=C(NC[C@@H](O)C(F)(F)F)[C@H]1C[C@H](c2c(-c3ccc(F)cc3)[nH]c3c(F)cc(F)cc32)C1 [Compound 177]	0.25 to 1
CC(C)C(CO)NC(=O)[C@H]1C[C@H](c2c(-c3ccc(F)cc3)[nH]c3c(F)cc(F)cc32)C1 (stereo partly shown) [Compound 29]	> 1
O=C([C@H]1C[C@H](c2c(-c3ccc(F)cc3)[nH]c3c(F)cc(F)cc32)C1)N1CCOC[C@@H]1CO [Compound 219]	0.25 to 1
CC(C)(O)C(O)CNC(=O)[C@H]1C[C@H](c2c(-c3ccc(F)cc3)[nH]c3c(F)cc(F)cc32)C1 (stereo partly shown) [Compound 215]	> 1
CC(O)(CO)CNC(=O)[C@H]1C[C@H](c2c(-c3ccc(F)cc3)[nH]c3c(F)cc(F)cc32)C1 (mixture of isomers) [Compound 216]	> 1
O=C1CN(C(=O)[C@H]2C[C@H](c3c(-c4ccc(F)cc4)[nH]c4c(F)cc(F)cc43)C2)CCN1 [Compound 228]	> 1
O=C(NCCn1cccc1)[C@H]1C[C@H](c2c(-c3ccc(F)cc3)[nH]c3c(F)cc(F)cc32)C1 [Compound 34]	> 1
CC(C)CC(NC(=O)[C@H]1C[C@H](c2c(-c3ccc(F)cc3)[nH]c3c(F)cc(F)cc32)C1)C(N)=O (stereo partly shown) [Compound 30]	> 1
Cc1cnc(NC(=O)[C@H]2C[C@H](c3c(-c4ccc(F)cc4)[nH]c4c(F)cc(F)cc43)C2)o1 [Compound 24]	> 1
O=C(NCCn1cncn1)[C@H]1C[C@H](c2c(-c3ccc(F)cc3)[nH]c3c(F)cc(F)cc32)C1 [Compound 36]	< 0.25
CC(CO)(CO)NC(=O)[C@H]1C[C@H](c2c(-c3ccc(F)cc3)[nH]c3c(F)cc(F)cc32)C1 [Compound 186]	< 0.25
Cc1ccn(CCNC(=O)[C@H]2C[C@H](c3c(-c4ccc(F)cc4)[nH]c4c(F)cc(F)cc43)C2)n1 [Compound 35]	> 1
Cc1noc(CNC(=O)[C@H]2C[C@H](c3c(-c4ccc(F)cc4)[nH]c4c(F)cc(F)cc43)C2)n1 [Compound 173]	< 0.25
NC(=O)C(CO)NC(=O)[C@H]1C[C@H](c2c(-c3ccc(F)cc3)[nH]c3c(F)cc(F)cc32)C1 (stereo partly shown) [Compound 32]	< 0.25
C[C@H](O)[C@@H](CO)NC(=O)[C@H]1C[C@H](c2c(-c3ccc(F)cc3)[nH]c3c(F)cc(F)cc32)C1 [Compound 16]	< 0.25
Cc1cc(NC(=O)[C@H]2C[C@H](c3c(-c4ccc(F)cc4)[nH]c4c(F)cc(F)cc43)C2)no1 [Compound 17]	0.25 to 1
CC(CO)N(C)C(=O)[C@H]1C[C@H](c2c(-c3ccc(F)cc3)[nH]c3c(F)cc(F)cc32)C1 (mixture of isomers) [Compound 193]	0.25 to 1
